Data: article PMC6538953, “Metal Ions Activate the Human Taste Receptor TAS2R7” (Chemical Senses, 2019)
Substitutions are numbered along the chain they refer to. “Also recorded” adds a separate entry of the source. Where a name gives a salt, the structure may show the parent alone. Read-outs that look alike come from different tables or passages of the source.

What was measured:
[1] = target: T1, human TAS2R7 E264^7.32L mutant (Homo sapiens, UniProt Q9NYW3, E264L); assay: Calcium mobilization assay, TAS2R7 mutant E264L; format: cell-based; conditions: 20 mM metal ions except 0.16 mM Al2(SO4)3; cromolyn 10 mM; Figure 6B
T1 construct: signal peptide: first 45 amino acid residues of rat somatostatin receptor 3 (N); expressed in transfected cells; host or cells: HEK293 PEAKrapid (ATCC CRL-2828), transient, co-transfected with Gα16-gust44
T1 sequence (Q9NYW3 1-318 E264L): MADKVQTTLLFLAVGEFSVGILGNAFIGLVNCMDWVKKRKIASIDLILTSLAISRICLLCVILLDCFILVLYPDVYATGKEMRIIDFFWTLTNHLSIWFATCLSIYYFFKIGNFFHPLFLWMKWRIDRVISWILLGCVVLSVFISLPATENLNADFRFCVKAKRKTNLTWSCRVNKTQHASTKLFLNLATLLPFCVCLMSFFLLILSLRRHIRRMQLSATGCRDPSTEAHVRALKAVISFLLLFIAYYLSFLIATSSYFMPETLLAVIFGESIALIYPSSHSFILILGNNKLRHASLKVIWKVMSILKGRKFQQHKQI
Description: (§1) The coding sequences of human TAS2Rs were amplified from human genomic DNA, then subcloned into pcDNA3.1(+) vector, with the herpes simplex virus glycoprotein D epitope (HSV) at the C-terminal and a signal peptide consisting of the first 45 amino acid residues of the rat somatostatin receptor 3 at the N-terminal, essentially as described previously ([Bufe et al. 2002]). Point mutations in human TAS2R7 (NCBI Reference Sequence: NP_076408.1) were constructed by site-directed mutagenesis. All the constructs were confirmed by Sanger sequencing.
(§2) Human embryonic kidney 293 (PEAKrapid, ATCC # CRL-2828) cells were cultured in Opti-MEM medium with 4% fetal bovine serum. One day before transfection, cells were seeded on a 96-well plate at a density of 25 000 per well. Cells were then transiently transfected with a TAS2R construct (0.1 µg/well) along with a G protein Gα16-gust44 (0.1 µg/well) construct by Lipofectamine 2000 (0.5 µl/well). For controls, only Gα16-gust44 was used (mock transfection). Twenty-four hours after transfection, cells were washed with HBSS including 10 mM HEPES and loaded with Fluo-4 in the dark for 1 h. After incubation, cells were washed 2 times with HBSS (including 10 mM HEPES), incubated in the dark for another 30 min, and then washed with assay solution once more before running the assay using a FlexStation III reader. Relative fluorescence units (excitation at 494 nm, emission at 516 nm, and auto cutoff at 515 nm) were read every 2 s for 2 min. Calcium mobilization traces were recorded.
Calcium mobilization traces were raw data obtained from single wells. Changes in fluorescence (ΔF) were calculated as the peak fluorescence minus baseline fluorescence ([Lei et al. 2015]). The calcium mobilization was quantified as the percentage of change (ΔF) relative to baseline (F). […] Calcium mobilization traces and bar graphs along with dose-dependent plots were all generated by GraphPad Prism 7. Analysis of variance with Dunnett’s multiple comparisons test was used for statistical analysis. *P < 0.05. […]

human TAS2R7 [2] = target: T2, human TAS2R7 (Homo sapiens, UniProt Q9NYW3); assay: Calcium mobilization assay, HEK293 cells transfected with TAS2R7 and Gα16-gust44; format: cell-based; conditions: for Dose dependence of TAS2R7 response: Figure 2A,C; for Compounds triggering detectable responses in cells transfected with TAS2R7: at the concentrations reported previously (Meyerhof et al. 2010), Figure 4A; for Activation of TAS2R7 by metal ions: 20 mM, Figure 1A,B
T2 construct: first 45 residues of rat somatostatin receptor 3 (signal peptide) (N); expressed in transfected cells; host or cells: HEK293 (PEAKrapid, ATCC CRL-2828)
T2 sequence (Q9NYW3 1-318): T1 sequence (Q9NYW3 1-318 E264L) with L264E
Description: as §1
All tested compounds were purchased from Sigma–Aldrich, with the exception of diphenidol hydrochloride (Reagent World) and L-praziquantel (manufactured by Shaoxing Pharmaceutical Co. Ltd.). All the metal ions were dissolved in the assay solution (130 mM NaCl, 5 mM KCl, 2 mM CaCl2, and 10 mM glucose; pH 7.4) unless specified otherwise, and the bitter compounds (diphenidol, quinine, and chlorphenamine) were dissolved first in dimethyl sulfoxide (DMSO) as stock solution and then diluted with the assay solution; the final DMSO concentration was below 0.5%, with the exception of cromolyn, which is dissolved in the assay solution directly. For our initial screening (Table 1), Hanks’ balanced salt solution (HBSS, ThermoFisher, catalog no. 14025134) supplemented with 10 mM hydroxyethyl piperazineethanesulfonic acid (HEPES) were used as the assay buffer.
as §2
(§3) Calcium mobilization traces were raw data obtained from single wells. Changes in fluorescence (ΔF) were calculated as the peak fluorescence minus baseline fluorescence ([Lei et al. 2015]). The calcium mobilization was quantified as the percentage of change (ΔF) relative to baseline (F). […] Calcium mobilization traces and bar graphs along with dose-dependent plots were all generated by GraphPad Prism 7. Analysis of variance with Dunnett’s multiple comparisons test was used for statistical analysis. *P < 0.05.
To determine whether a TAS2R responds to metal ions, we expressed all 25 human bitter receptors individually in HEK293 cells (PEAKrapid) by transient transfection of a TAS2R along with a coupling chimeric G protein, Gα16-gust44. All TAS2Rs were cloned from human genomic DNA. Activation of human TAS2Rs was monitored by the calcium mobilization assay ([Lei et al. 2015]). We tested these receptors individually for their responses toward metal ions: ZnSO4 (20 mM), CuSO4 (20 mM), and MgCl2 (20 mM) (Table 1, Figure 1A). […] To determine the breadth of tuning of TAS2R7 toward metal ions, we also tested MnCl2 (20 mM), Al2(SO4)3 ([…]), and CaCl2 (20 mM) (Figure 1B).

[3] = target: T3, human TAS2R7 E264^7.32K mutant (Homo sapiens, UniProt Q9NYW3, E264K); assay: Calcium mobilization assay, TAS2R7 mutant E264K; format: cell-based; conditions: 20 mM metal ions except 0.16 mM Al2(SO4)3; cromolyn 10 mM; Figure 6B
T3 construct: signal peptide: first 45 amino acid residues of rat somatostatin receptor 3 (N); expressed in transfected cells; host or cells: HEK293 PEAKrapid (ATCC CRL-2828), transient, co-transfected with Gα16-gust44
T3 sequence (Q9NYW3 1-318 E264K): T1 sequence (Q9NYW3 1-318 E264L) with L264K
Description: as §1, §2, §3
To assess the importance of these residues, we performed site-directed mutagenesis. We mutated the negatively charged residues E16^1.42, E264^7.32, and E271^7.39 to Q (glutamine), K (lysine), or L (leucine). The facing H94^3.37 was mutated to F (phenylalanine). HEK293 cells that expressed mutant receptors along with Gα16-gust44 were examined for their responses to metal ions (20 mM for all except 0.16 mM Al2(SO4)3) and cromolyn (10 mM, as a positive control) to assess receptor’s function. To determine the expression level of each receptor, we stained the wild-type or mutant receptor-transfected cells using an anti-HSV antibody since all the receptors are tagged with HSV at c-terminal. […]

human TAS2R7 [4] = target: T2, human TAS2R7; set-up: method as in Meyerhof et al. 2010; conditions: ref Meyerhof et al. 2010; cited from earlier work
[5] = target: T4, human TAS2R7 H94^3.37F mutant (Homo sapiens, UniProt Q9NYW3, H94F); assay: Calcium mobilization assay, TAS2R7 mutant H94F; format: cell-based; conditions: 20 mM metal ions except 0.16 mM Al2(SO4)3; Figure 6B
T4 construct: signal peptide: first 45 amino acid residues of rat somatostatin receptor 3 (N); expressed in transfected cells; host or cells: HEK293 PEAKrapid (ATCC CRL-2828), transient, co-transfected with Gα16-gust44
T4 sequence (Q9NYW3 1-318 H94F): T1 sequence (Q9NYW3 1-318 E264L) with H94F, L264E
Description: as §1
(§4) Human embryonic kidney 293 (PEAKrapid, ATCC # CRL-2828) cells were cultured in Opti-MEM medium with 4% fetal bovine serum. […] After incubation, cells were washed 2 times with HBSS (including 10 mM HEPES), incubated in the dark for another 30 min, and then washed with assay solution once more before running the assay using a FlexStation III reader. Relative fluorescence units (excitation at 494 nm, emission at 516 nm, and auto cutoff at 515 nm) were read every 2 s for 2 min. Calcium mobilization traces were recorded.
(§5) Calcium mobilization traces were raw data obtained from single wells. Changes in fluorescence (ΔF) were calculated as the peak fluorescence minus baseline fluorescence ([Lei et al. 2015]). The calcium mobilization was quantified as the percentage of change (ΔF) relative to baseline (F). […]

human TAS2R14 = target: T5, human TAS2R14 (Homo sapiens, UniProt Q9NYV8); assay: Calcium mobilization assay, HEK293 cells transfected with TAS2R14 and Gα16-gust44; format: cell-based; conditions: 0.5 mM; Figure 3B
T5 construct: first 45 residues of rat somatostatin receptor 3 (signal peptide) (N); expressed in transfected cells; host or cells: HEK293 (PEAKrapid, ATCC CRL-2828)
T5 sequence (Q9NYV8 1-317): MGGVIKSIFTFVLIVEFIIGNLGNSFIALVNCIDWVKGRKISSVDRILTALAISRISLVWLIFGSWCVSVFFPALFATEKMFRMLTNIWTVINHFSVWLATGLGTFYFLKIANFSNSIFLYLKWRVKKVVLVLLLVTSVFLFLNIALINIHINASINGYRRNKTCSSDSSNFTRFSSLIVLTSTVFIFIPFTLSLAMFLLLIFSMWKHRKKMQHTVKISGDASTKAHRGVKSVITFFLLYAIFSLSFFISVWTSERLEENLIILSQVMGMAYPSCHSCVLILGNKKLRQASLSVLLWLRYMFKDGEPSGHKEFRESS
Description: as §1, with “sequencing. […]” for “sequencing.”
as §4, §5

[6] = Supplementary Figure S2, read-out: EC50, TAS2R7, comparison of anions
[7] = assay solution containing calcium, Figures 3A, 4C, read-out: EC50, TAS2R7, in the presence of calcium
[8] = assay solution containing no calcium, Figures 3A, 4C, read-out: EC50, TAS2R7, in the absence of calcium
[9] = assay solution with 2 mM CaCl2, Figure 2, read-out: EC50, TAS2R7 concentration-response

| Structure (SMILES) | Dose dependence of TAS2R7 response (human TAS2R7 [2]) | EC50 (human TAS2R7 [2]; [7]) [mM] | EC50 (human TAS2R7 [2]; [8]) [mM] | EC50 (human TAS2R7 [2]; [9]) [mM] | further results |
| --- | --- | --- | --- | --- | --- |
| O=S(=O)([O-])[O-].[Zn+2] [ZnSO4] | dose-dependent responses | 2.41 | 3.49 | – | Response of E264L mutant receptor [1]: responded; EC50 (human TAS2R7 [2]; [6]): 3.21 mM; Response of E264K mutant receptor [3]: specific loss of responses |
| [Cl-].[Cl-].[Mg+2] [MgCl2] | dose-dependent responses | 7.84 | 5.78 | 6.07 ± 1.07 | Maximal response of TAS2R7 in the absence versus presence of calcium (human TAS2R7 [2]; assay solution without calcium compared with calcium): smaller |
| CN(C)CCC(c1ccc(Cl)cc1)c1ccccn1 (stereo not drawn) [chlorphenamine, reference compound] | – | – | – | – | TAS2R7 reported to respond to bitter compounds (human TAS2R7 [4]): respond; Compounds triggering detectable responses in cells transfected with TAS2R7 (human TAS2R7 [2]): none |
| [Ca+2].[Cl-].[Cl-] [CaCl2] | dose-dependent responses | 7.56 | 4.7 | 5.27 ± 0.5 | Activation of TAS2R7 by metal ions (human TAS2R7 [2]): activated the receptor |
| O=S(=O)([O-])[O-].[Cu+2] [CuSO4] | dose-dependent responses | 1.89 | 0.85 | 1.04 ± 0.36 | – |
| C=C[C@H]1C[N@@]2CC[C@H]1C[C@H]2[C@H](O)c1ccnc2ccc(OC)cc12 [quinine, reference compound] | – | – | – | – | TAS2R7 reported to respond to bitter compounds (human TAS2R7 [4]): respond; Compounds triggering detectable responses in cells transfected with TAS2R7 (human TAS2R7 [2]): none |
| [Cl-].[K+] [KCl, potassium chloride] | – | – | – | – | Activation of TAS2R7 by monovalent salt (human TAS2R7 [2]; any concentration tested, Figures 1C,D and 2A): did not activate the receptor; also recorded: not responsive |
| [Cl][Mn][Cl] [MnCl2] | dose-dependent responses | 2.24 | 7.19 | 6.59 ± 1.73 | Response of H94F mutant receptor [5]: diminished responses; Activation of TAS2R7 by metal ions (human TAS2R7 [2]): activated the receptor; Response of E264K mutant receptor [3]: still responsive |
| [Cl-].[Cl-].[Zn+2] [ZnCl2] | – | – | – | – | EC50 (human TAS2R7 [2]; [6]): 3.42 mM |
| O=C(C1CCCCC1)N1CC(=O)N2CCc3ccccc3[C@@H]2C1 [L-praziquantel] | – | – | – | – | Response amplitude of TAS2R14 in the absence versus presence of calcium (human TAS2R14): reduced response amplitude |
| OC(CCCN1CCCCC1)(c1ccccc1)c1ccccc1 [diphenidol, diphenidol hydrochloride, reference compound] | – | – | – | – | TAS2R7 reported to respond to bitter compounds (human TAS2R7 [4]): respond; Compounds triggering detectable responses in cells transfected with TAS2R7 (human TAS2R7 [2]): none |
